Experimental data as given in ChEMBL document CHEMBL1201862, “PubChem BioAssay data set” (2004).
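Five compound concentrations were applied to cells in 96-well plates for 48 hours; endpoints were derived by simple linear interpolation of the resulting dose-response curve. The concentration for 50% growth inhibition is given as GI50.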 Calls of active or inactive are those of the source. No stated cut-off is given here; in the data, active = GI50 up to about 1.1 µM and inactive = higher. *1 amine or outer side, *2 acyl side, *3 side chain or, on linkers, in order; H or OH if unused. Where a SMILES comes first, the peptide text is derived from it. Bridges are numbered along the chain shown (N, C = ends). [ ]: non-standard residue; d: D form. The star is where a group is joined. ξ: configuration not given here. ξOrn(4,5-diOH) = O=C(C(CC(O)C(O)N[*:3])N[*:1])[*:2]; ξhTyr(βξ-OH,γξ-OH) = NC(C(=O)O)C(O)C(O)c1ccc(O)cc1; ξPro(3ξ-OH,4ξ-Me) = CC1CNC(C(=O)O)C1O; X55 = CCCCC/C=C/C/C=C\CCCCCCCC(=O)*; Hyp = O=C(O)[CH]1C[CH](O)CN1

Tests used:
Experiment in all cases: NCI tumour cell line growth inhibition, 48 h
[1] = system: Malme-3M
[2] = system: MOLT-4
[3] = system: Hs-578T
[4] = system: SK-MEL-2
[5] = system: CAKI-1
[6] = system: MDA-MB-435
[7] = system: KM12
[8] = system: SN12C
[9] = system: SK-OV-3
[10] = system: MCF7
[11] = system: LOX IMVI
[12] = system: SF-268
[13] = system: HCT-15
[14] = system: T47D
[15] = system: COLO 205
[16] = system: EKVX
[17] = system: HOP-92
[18] = system: SK-MEL-5
[19] = system: SNB-75
[20] = system: RXF 393

SMILES	GI50 [1]	GI50 [2]	GI50 [3]	GI50 [4]	GI50 [5]	GI50 [6]	GI50 [7]	GI50 [8]	GI50 [9]	GI50 [10]	GI50 [11]	GI50 [12]	GI50 [13] [µM]	GI50 [14]	GI50 [15]	GI50 [16]	GI50 [17]	GI50 [18]	GI50 [19]	GI50 [20]
C=C1C(=O)OC2CC(=C)C3CC=C(C)C3CC12 (centres undefined)	> 10 µM (inactive)	17.3 µM (inactive)	44.7 µM (inactive)	11.7 µM (inactive)	15 µM (inactive)	15.7 µM (inactive)	41.1 µM (inactive)	16.2 µM (inactive)	30.7 µM (inactive)	20.1 µM (inactive)	11.1 µM (inactive)	34 µM (inactive)	17.5	14.3 µM (inactive)	17.9 µM (inactive)	64.6 µM (inactive)	10.5 µM (inactive)	27 µM (inactive)	–	–
CCCCC/C=C/C/C=C\CCCCCCCC(=O)NC1CC(O)C(O)NC(=O)C2C(O)C(C)CN2C(=O)C(C(C)O)NC(=O)C(C(O)C(O)c2ccc(O)cc2)NC(=O)C2CC(O)CN2C(=O)C(C(C)O)NC1=O (stereo not drawn) (X55-[ξOrn(4,5-diOH)]T[Hyp][ξhTyr(βξ-OH,γξ-OH)]T[ξPro(3ξ-OH,4ξ-Me)]; lactam 1-C; configuration not given here)	–	> 100 µM (inactive)	> 100 µM (inactive)	> 100 µM (inactive)	> 100 µM (inactive)	> 100 µM (inactive)	> 100 µM (inactive)	> 100 µM (inactive)	–	–	> 100 µM (inactive)	> 100 µM (inactive)	> 100	> 100 µM (inactive)	> 100 µM (inactive)	> 100 µM (inactive)	> 100 µM (inactive)	> 100 µM (inactive)	> 100 µM (inactive)	–
CCOC(=O)c1nc2ccccc2nc1Nc1ccc(C(=O)OC)s1	18.5 µM (inactive)	> 100 µM (inactive)	> 100 µM (inactive)	> 100 µM (inactive)	> 100 µM (inactive)	> 100 µM (inactive)	> 100 µM (inactive)	> 100 µM (inactive)	–	> 100 µM (inactive)	> 100 µM (inactive)	> 100 µM (inactive)	> 100	> 100 µM (inactive)	> 100 µM (inactive)	> 100 µM (inactive)	> 100 µM (inactive)	> 100 µM (inactive)	> 100 µM (inactive)	–
Oc1c(OCc2nnc(CCCCCCCCc3nnc(COc4ccc5ccccc5c4O)o3)o2)ccc2ccccc12	> 100 µM (inactive)	19.7 µM (inactive)	–	> 100 µM (inactive)	29.8 µM (inactive)	> 100 µM (inactive)	> 100 µM (inactive)	83.9 µM (inactive)	44.5 µM (inactive)	> 100 µM (inactive)	–	85.5 µM (inactive)	> 100	–	> 100 µM (inactive)	> 100 µM (inactive)	43 µM (inactive)	> 100 µM (inactive)	62.7 µM (inactive)	> 100 µM (inactive)
CN1C2=Nc3n(C)c4ccccc4[n+]3CN2c2ccccc21	4.21 µM (inactive)	16.8 µM (inactive)	27.5 µM (inactive)	18.4 µM (inactive)	> 100 µM (inactive)	26.5 µM (inactive)	8.73 µM (inactive)	25.8 µM (inactive)	> 100 µM (inactive)	10.5 µM (inactive)	–	13.1 µM (inactive)	> 100	16.3 µM (inactive)	12.7 µM (inactive)	36.1 µM (inactive)	22.6 µM (inactive)	12.6 µM (inactive)	–	–
Cc1cn(C(C)OCCN2C(=O)c3ccccc3C2=O)c(=O)[nH]c1=O (centres undefined)	–	> 100 µM (inactive)	–	> 100 µM (inactive)	> 100 µM (inactive)	> 100 µM (inactive)	> 100 µM (inactive)	> 100 µM (inactive)	–	> 100 µM (inactive)	> 100 µM (inactive)	–	> 100	> 100 µM (inactive)	> 100 µM (inactive)	> 100 µM (inactive)	> 100 µM (inactive)	> 100 µM (inactive)	> 100 µM (inactive)	> 100 µM (inactive)
CC1(C)OC2COC3([C@@H]4OC(C)(C)O[C@@H]4CO)OC(C)(C)OC3C2O1 (some centres undefined)	–	–	–	> 100 µM (inactive)	> 100 µM (inactive)	> 100 µM (inactive)	> 100 µM (inactive)	> 100 µM (inactive)	–	> 100 µM (inactive)	> 100 µM (inactive)	–	> 100	> 100 µM (inactive)	> 100 µM (inactive)	> 100 µM (inactive)	> 100 µM (inactive)	> 100 µM (inactive)	> 100 µM (inactive)	> 100 µM (inactive)
Cc1nc2c(cc1C(=O)NN)c(=O)n(C)c(=O)n2C	–	> 100 µM (inactive)	–	> 100 µM (inactive)	> 100 µM (inactive)	> 100 µM (inactive)	> 100 µM (inactive)	> 100 µM (inactive)	> 100 µM (inactive)	> 100 µM (inactive)	–	–	> 100	> 100 µM (inactive)	> 100 µM (inactive)	> 100 µM (inactive)	–	> 100 µM (inactive)	> 100 µM (inactive)	> 100 µM (inactive)
Cc1cc(S(N)(=O)=O)c(SCc2nc(N)nc(N(C)C)n2)cc1Cl	> 10 µM (inactive)	> 10 µM (inactive)	> 10 µM (inactive)	> 10 µM (inactive)	> 10 µM (inactive)	–	> 10 µM (inactive)	> 10 µM (inactive)	> 10 µM (inactive)	> 10 µM (inactive)	> 10 µM (inactive)	> 10 µM (inactive)	> 10	> 10 µM (inactive)	> 10 µM (inactive)	> 10 µM (inactive)	> 10 µM (inactive)	> 10 µM (inactive)	> 10 µM (inactive)	> 10 µM (inactive)
C=CCOCn1cc(C)c(=O)[nH]c1=O	> 100 µM (inactive)	> 100 µM (inactive)	> 100 µM (inactive)	–	> 100 µM (inactive)	> 100 µM (inactive)	> 100 µM (inactive)	> 100 µM (inactive)	> 100 µM (inactive)	> 100 µM (inactive)	> 100 µM (inactive)	> 100 µM (inactive)	> 100	> 100 µM (inactive)	> 100 µM (inactive)	> 100 µM (inactive)	–	> 100 µM (inactive)	> 100 µM (inactive)	–
O=C(CCl)N1CCN(c2ccccn2)CC1	16.8 µM (inactive)	31.7 µM (inactive)	42.8 µM (inactive)	–	19.3 µM (inactive)	–	34.5 µM (inactive)	–	46.7 µM (inactive)	23.9 µM (inactive)	–	23.6 µM (inactive)	> 10	13.2 µM (inactive)	24.2 µM (inactive)	26.9 µM (inactive)	21.3 µM (inactive)	18.1 µM (inactive)	> 10 µM (inactive)	23.4 µM (inactive)
CN1CC2=C(N=C(S)NC2c2ccccc2)/C(=C/c2ccccc2)C1 (centres undefined)	30.1 µM (inactive)	13 µM (inactive)	40.6 µM (inactive)	45.9 µM (inactive)	> 100 µM (inactive)	46.8 µM (inactive)	25.6 µM (inactive)	51.8 µM (inactive)	22.2 µM (inactive)	40.4 µM (inactive)	29.7 µM (inactive)	> 100 µM (inactive)	33	44.8 µM (inactive)	34.8 µM (inactive)	75.2 µM (inactive)	–	27.7 µM (inactive)	48 µM (inactive)	–
NC(Cc1c2ccccc2cc2ccccc12)C(=O)O (centres undefined)	80.7 µM (inactive)	37 µM (inactive)	–	> 100 µM (inactive)	62.2 µM (inactive)	> 100 µM (inactive)	> 100 µM (inactive)	54.3 µM (inactive)	> 100 µM (inactive)	> 100 µM (inactive)	> 100 µM (inactive)	> 100 µM (inactive)	68.1	> 100 µM (inactive)	38.4 µM (inactive)	> 100 µM (inactive)	61.1 µM (inactive)	47.4 µM (inactive)	14 µM (inactive)	> 100 µM (inactive)
N#Cc1c(-c2ccccc2)[nH]c2ccccc2c1=O	41.3 µM (inactive)	> 100 µM (inactive)	19.2 µM (inactive)	39.6 µM (inactive)	> 100 µM (inactive)	17.4 µM (inactive)	47.9 µM (inactive)	95.7 µM (inactive)	26.2 µM (inactive)	67 µM (inactive)	> 100 µM (inactive)	35 µM (inactive)	62.8	–	> 100 µM (inactive)	> 100 µM (inactive)	> 100 µM (inactive)	66.7 µM (inactive)	15.1 µM (inactive)	30.7 µM (inactive)
O=S(=O)(O)c1cc(O)c2c(/N=C\c3ccccc3O)cc(S(=O)(=O)O)cc2c1	> 100 µM (inactive)	9.57 µM (inactive)	–	> 100 µM (inactive)	> 100 µM (inactive)	> 100 µM (inactive)	> 100 µM (inactive)	> 100 µM (inactive)	> 100 µM (inactive)	> 100 µM (inactive)	> 100 µM (inactive)	> 100 µM (inactive)	> 100	82.6 µM (inactive)	> 100 µM (inactive)	> 100 µM (inactive)	> 100 µM (inactive)	> 100 µM (inactive)	93.5 µM (inactive)	> 100 µM (inactive)
CC(=O)OC(COc1ccc2c(c1)[n+]([O-])nc(N)[n+]2[O-])CN1CCCCC1 (centres undefined)	9.79 µM (inactive)	2.49 µM (inactive)	–	10.2 µM (inactive)	17.4 µM (inactive)	36 µM (inactive)	13.1 µM (inactive)	7.62 µM (inactive)	–	4.71 µM (inactive)	–	> 10 µM (inactive)	7.89	–	4.85 µM (inactive)	–	17.4 µM (inactive)	3.78 µM (inactive)	18.2 µM (inactive)	16.5 µM (inactive)
